{
  "source": "paper PMC5408651",
  "about": "(Journal of visualized experiments : JoVE, 2017)",
  "key": {"[1]": {"test_system": "neutrophils (NIMP)", "conditions": "Tsk/+ mice, IRF5D 1 mg/kg/d subcutaneously, 21 d; Tsk/+ vs. Tsk/+ + IRF5D p<0.025; mean ± SD, n=3, 10 images per antibody; ref [21]; cited from earlier work"}, "[2]": {"test_system": "monocytes/macrophages (CD64)", "conditions": "Tsk/+ mice, IRF5D 1 mg/kg/d subcutaneously, 21 d; Tsk/+ vs. Tsk/+ + IRF5D p<0.025; mean ± SD, n=3, 10 images per antibody; ref [21]; cited from earlier work"}, "[3]": {"test_system": "extracellular matrix", "assay": "alterations in extracellular matrix of tight-skin mouse", "format": "in vivo, Tsk/+ mice", "conditions": "tight-skin mouse (Tsk/+); abstract statement, no data shown"}},
  "data": [
    {"substance": "Ac-ELDWDADDIRLQIDNPD-NH2 [IRF5D]", "values": [
      {"measurement": "number of neutrophils (NIMP) in the heart", "setting": "[1]", "value": "decreased"},
      {"measurement": "number of monocytes/macrophages (CD64) in the heart", "setting": "[2]", "value": "decreased"},
      {"measurement": "alterations in extracellular matrix", "setting": "[3]", "value": "reduced alterations in extracellular matrix"}
    ]}
  ]
}
